Converted amounts (≈) assume the structure as drawn. Like-named read-outs stand apart in the source and are kept apart here.
What was measured:
Type in all cases: cell-based
C. glabrata ATCC 66032 = test: MIC, broth double dilution; details: strain no. 40, C. glabrata ATCC 66032
From the text: (§1) The antifungal activities of compounds 1a, 1 and 2 (collectively: caspofungin derivatives) were compared to that of caspofungin and CSF-BOD using a panel of 49 C. albicans and C. glabrata strains (Tables 1 and 2). The panel included ATCC strains and clinical isolates as well a collection of caspofungin-responsive strains and their corresponding isogenic caspofungin-resistant derivatives, constructed by introducing point mutations within and near the defined hotspots in the FKS1 and/or FKS2 genes of the GS complex. Minimal inhibitory concentration (MIC) values for all strains were determined using the broth double dilution method and are summarized in FIG. 2 and Table 2. […] The clinical breakpoints (threshold) for caspofungin-resistance in C. albicans and C. glabrata are 1 μg/mL and 0.5 μg/mL, respectively.

[1] = system: C. glabrata T-983 (11-079); test: MIC, broth double dilution; details: strain no. 47, T-983 (11-079), clinical isolate
From the text: as §1

[2] = system: C. glabrata T-982 (11-181); test: MIC, broth double dilution; details: strain no. 46, T-982 (11-181), clinical isolate
From the text: as §1

[3] = system: C. glabrata T-984 (11-078); test: MIC, broth double dilution; details: strain no. 48, T-984 (11-078), clinical isolate
From the text: as §1

C. glabrata T-192 (1775) = test: MIC, broth double dilution; details: strain no. 44, T-192 (1775), clinical isolate
From the text: as §1

C. albicans SN152 = test: MIC, broth double dilution
From the text: as §1

[4] = system: C. albicans T-2069 (DP-85); test: microbe, parasite or virus in culture; details: strain no. 14, T-2069 (DP-85), clinical isolate, FKS1 HS1-S645F mutation
From the text: as §1

C. glabrata TGL00056 = test: microbe, parasite or virus in culture; details: strain no. 22, TGL00056, parental CST34, FKS mutant
From the text: as §1

C. glabrata TGL00291 = test: microbe, parasite or virus in culture; details: strain no. 36, TGL00291, parental BG2, FKS mutant
From the text: as §1

C. glabrata TGL00107 = test: microbe, parasite or virus in culture; details: strain no. 23, TGL00107, parental CST34, FKS mutant
From the text: as §1

C. glabrata TGL00264 = test: microbe, parasite or virus in culture; details: strain no. 29, TGL00264, parental CST78, FKS mutant
From the text: as §1

C. albicans CG72 = test: microbe, parasite or virus in culture
From the text: as §1

C. glabrata DPL1086 = test: microbe, parasite or virus in culture; details: strain no. 17, DPL1086, parental ATCC 90030, FKS1 mutant HS1-S629P
From the text: as §1

C. glabrata TGL00277 = test: microbe, parasite or virus in culture; details: strain no. 33, TGL00277, parental EF1620, FKS mutant
From the text: as §1

[5] = system: C. albicans T-2076 (DP-194); test: microbe, parasite or virus in culture; details: strain no. 13, T-2076 (DP-194), clinical isolate, FKS1 HS1-S645F, HS2-R1361R/H mutation
From the text: as §1

C. glabrata CST78 = test: microbe, parasite or virus in culture
From the text: as §1

C. glabrata TGL00293 = test: microbe, parasite or virus in culture; details: strain no. 37, TGL00293, parental BG2, FKS mutant
From the text: as §1

[6] = system: C. albicans DPL1015 (DP-A15); test: microbe, parasite or virus in culture; details: strain no. 2, DPL1015 (DP-A15), parental SC5314, FKS1 mutant HS1-S645S/P
From the text: as §1

C. glabrata TGL00258 = test: microbe, parasite or virus in culture; details: strain no. 25, TGL00258, parental CST34, FKS mutant
From the text: as §1

C. albicans SN95 = test: microbe, parasite or virus in culture
From the text: as §1

C. glabrata TGL00256 = test: microbe, parasite or virus in culture; details: strain no. 24, TGL00256, parental CST34, FKS mutant
From the text: as §1

C. glabrata TGL00054 = test: microbe, parasite or virus in culture; details: strain no. 19, TGL00054, parental CST109, FKS2 mutant
From the text: as §1

C. glabrata TGL00265 = test: microbe, parasite or virus in culture; details: strain no. 30, TGL00265, parental CST78, FKS mutant
From the text: as §1

[7] = system: C. albicans T-2074 (DP-122); test: microbe, parasite or virus in culture; details: strain no. 12, T-2074 (DP-122), clinical isolate, FKS1 HS1-P649H mutation
From the text: as §1

[8] = system: C. glabrata T-985 (11-076); test: microbe, parasite or virus in culture
From the text: as §1

C. glabrata TGL00091 = test: microbe, parasite or virus in culture; details: strain no. 35, TGL00091, FKS mutant
From the text: as §1

C. glabrata TGL00294 = test: microbe, parasite or virus in culture; details: strain no. 38, TGL00294, parental BG2, FKS mutant
From the text: as §1

C. glabrata TGL00065 = test: microbe, parasite or virus in culture; details: strain no. 27, TGL00065, FKS mutant
From the text: as §1

C. glabrata TGL00275 = test: microbe, parasite or virus in culture; details: strain no. 32, TGL00275, FKS mutant
From the text: as §1

[9] = system: C. albicans DPL1016 (DP-A15-10); test: microbe, parasite or virus in culture; details: strain no. 3, DPL1016 (DP-A15-10), parental SC5314, FKS1 mutant HS1-S645P
From the text: as §1

[10] = system: C. albicans T-2068 (DP-C42); test: microbe, parasite or virus in culture; details: strain no. 4, T-2068 (DP-C42), parental SC5314, FKS1 HS1-F641S mutation
From the text: as §1

[11] = system: C. albicans T-2077 (DP-205); test: microbe, parasite or virus in culture; details: strain no. 15, T-2077 (DP-205), clinical isolate, FKS1 HS1-S645P mutation
From the text: as §1

C. glabrata TGL00263 = test: microbe, parasite or virus in culture; details: strain no. 28, TGL00263, parental CST78, FKS mutant
From the text: as §1

C. glabrata TGL00253 = test: microbe, parasite or virus in culture; details: strain no. 20, TGL00253, parental CST109, FKS2 mutant
From the text: as §1

SMILES: C#CCOc1ccc([C@H](O)[C@@H](O)[C@@H]2NC(=O)[C@@H]3C[C@@H](O)CN3C(=O)[C@H]([C@@H](C)O)NC(=O)[C@@H](NC(=O)CCCCCCCC[C@@H](C)C[C@@H](C)CC)C[C@@H](O)[C@@H](NCCN)NC(=O)[C@@H]3[C@@H](O)CCN3C(=O)[C@H]([C@H](O)CCN)NC2=O)cc1 [Compound 1a]
- MIC (C. glabrata ATCC 66032): 1 µg/mL (≈ 0.884 µM)
- MIC [1]: 0.25 µg/mL (≈ 0.221 µM)
- MIC [2]: 0.25 µg/mL (≈ 0.221 µM)
- MIC [3]: 0.5 µg/mL (≈ 0.442 µM)
- MIC (C. glabrata T-192 (1775)): 0.5 µg/mL (≈ 0.442 µM)
- MIC (C. albicans SN152; strain no. 5, C. albicans SN152): 0.063 µg/mL (≈ 0.0557 µM)
- MIC [4]: 32 µg/mL (≈ 28.3 µM)
- MIC (C. glabrata TGL00056): >64 µg/mL
- MIC (C. glabrata TGL00291): >64 µg/mL
- MIC (C. glabrata TGL00107): >64 µg/mL
- MIC (C. glabrata TGL00264): >64 µg/mL
- MIC (C. albicans CG72; strain no. 7, CG72, parental CAM, pKE1:GFP-YPT72): 0.063 µg/mL (≈ 0.0557 µM)
- MIC (C. glabrata DPL1086): 4 µg/mL (≈ 3.54 µM)
- MIC (C. glabrata TGL00277): >64 µg/mL
- MIC [5]: 32 µg/mL (≈ 28.3 µM)
- MIC (C. glabrata CST78; strain no. 26, C. glabrata CST78): 0.5 µg/mL (≈ 0.442 µM)
- MIC (C. glabrata TGL00293): >64 µg/mL
- MIC [6]: 8 µg/mL (≈ 7.07 µM)
- MIC (C. glabrata TGL00258): >64 µg/mL
- MIC (C. albicans SN95; strain no. 8, SN95, parental RM1000): 0.125 µg/mL (≈ 0.11 µM)
- MIC (C. glabrata TGL00256): 2 µg/mL (≈ 1.77 µM)
- MIC (C. glabrata TGL00054): >64 µg/mL
- MIC (C. glabrata TGL00265): >64 µg/mL
- MIC [7]: 16 µg/mL (≈ 14.1 µM)
- MIC ([8]; strain no. 49, T-985 (11-076), clinical isolate): 0.5 µg/mL (≈ 0.442 µM)
- MIC (C. glabrata TGL00091): >64 µg/mL
- MIC (C. glabrata TGL00294): >64 µg/mL
- MIC (C. glabrata TGL00065): >64 µg/mL
- MIC (C. glabrata TGL00275): 16 µg/mL (≈ 14.1 µM)
- MIC [9]: 16 µg/mL (≈ 14.1 µM)
- MIC [10]: 16 µg/mL (≈ 14.1 µM)
- MIC [11]: >64 µg/mL
- MIC (C. glabrata TGL00263): >64 µg/mL
- MIC (C. glabrata TGL00253): >64 µg/mL

SMILES: CN(C)c1ccc2c(-c3ccc(C(=O)NCCCN=[N+]=[N-])cc3C(=O)[O-])c3ccc(=[N+](C)C)cc-3oc2c1 [Compound 5-TMR-azide]
- MIC (C. glabrata ATCC 66032): >64 µg/mL
- MIC [1]: >64 µg/mL
- MIC [2]: >64 µg/mL
- MIC [3]: >64 µg/mL
- MIC (C. glabrata T-192 (1775)): >64 µg/mL
- MIC (C. albicans SN152): >64 µg/mL
- MIC [4]: >64 µg/mL
- MIC (C. glabrata TGL00056): >64 µg/mL
- MIC (C. glabrata TGL00291): >64 µg/mL
- MIC (C. glabrata TGL00107): >64 µg/mL
- MIC (C. glabrata TGL00264): >64 µg/mL
- MIC (C. albicans CG72): >64 µg/mL
- MIC (C. glabrata DPL1086): >64 µg/mL
- MIC (C. glabrata TGL00277): >64 µg/mL
- MIC [5]: >64 µg/mL
- MIC (C. glabrata CST78): >64 µg/mL
- MIC (C. glabrata TGL00293): >64 µg/mL
- MIC [6]: >64 µg/mL
- MIC (C. glabrata TGL00258): >64 µg/mL
- MIC (C. albicans SN95): >64 µg/mL
- MIC (C. glabrata TGL00256): >64 µg/mL
- MIC (C. glabrata TGL00054): >64 µg/mL
- MIC (C. glabrata TGL00265): >64 µg/mL
- MIC [7]: >64 µg/mL
- MIC [8]: >64 µg/mL
- MIC (C. glabrata TGL00091): >64 µg/mL
- MIC (C. glabrata TGL00294): >64 µg/mL
- MIC (C. glabrata TGL00065): >64 µg/mL
- MIC (C. glabrata TGL00275): >64 µg/mL
- MIC [9]: >64 µg/mL
- MIC [10]: >64 µg/mL
- MIC [11]: >64 µg/mL
- MIC (C. glabrata TGL00263): >64 µg/mL
- MIC (C. glabrata TGL00253): >64 µg/mL
